target: T1, Human HIF-PHD2 (Homo sapiens, UniProt Q9GZT9); assay: HIF-PHD2 inhibition assay: time resolved fluorescence detection of HIF peptide hydroxylation; assay type: biochemical; conditions: FLAG-tagged full length PHD2; 0.2 μM 2-oxoglutarate, 0.5 μM HIF-1α peptide; 45 minutes at room temperature
T1 construct: FLAG-tagged full length PHD2 expressed in and purified from baculovirus-infected Sf9 cells; FLAG; made in house; host or cells: baculovirus-infected Sf9 cells
Method: To each well of a 384-well plate, 1 μL of test compounds in DMSO (final concentration ranging from 0.3 nM to 10 μM) were added into 20 μl of assay buffer (50 mM Tris pH 7.4/0.01% Tween-20/0.1 mg/ml bovine serum albumin/10 μM ferrous sulfate/1 mM sodium ascorbate/20 μg/ml catalase) containing 0.15 μg/ml FLAG-tagged full length PHD2 expressed in and purified from baculovirus-infected Sf9 cells. After a 5 min preincubation at room temperature, the enzymatic reactions were initiated by the addition of 4 μL of substrates final concentrations of 0.2 μM 2-oxoglutarate and 0.5 μM HIF-la peptide biotinyl-[…] […] After incubation for 45 minutes at room temperature, the reactions were terminated by the addition of a 25 μL quench/detection mix to a final concentration of 1 mM ortho-phenanthroline, 0.1 mM EDTA, 0.5 nM anti-(His)6 LANCE reagent (Perkin-Elmer Life Sciences), 100 nM AF647-labeled streptavidin (Invitrogen), and 2 μg/ml (His)6-VHL complex {S. Tan Protein Expr. Purif. […] Inhibition of the catalytic activity of HIF-PHD1 and HIF-PHD3 can be determined similarly, except for HIF-PHD3, final concentrations of 4 μM 2-oxoglutarate is used during the reaction.

T1 sequence (Q9GZT9 whole entry): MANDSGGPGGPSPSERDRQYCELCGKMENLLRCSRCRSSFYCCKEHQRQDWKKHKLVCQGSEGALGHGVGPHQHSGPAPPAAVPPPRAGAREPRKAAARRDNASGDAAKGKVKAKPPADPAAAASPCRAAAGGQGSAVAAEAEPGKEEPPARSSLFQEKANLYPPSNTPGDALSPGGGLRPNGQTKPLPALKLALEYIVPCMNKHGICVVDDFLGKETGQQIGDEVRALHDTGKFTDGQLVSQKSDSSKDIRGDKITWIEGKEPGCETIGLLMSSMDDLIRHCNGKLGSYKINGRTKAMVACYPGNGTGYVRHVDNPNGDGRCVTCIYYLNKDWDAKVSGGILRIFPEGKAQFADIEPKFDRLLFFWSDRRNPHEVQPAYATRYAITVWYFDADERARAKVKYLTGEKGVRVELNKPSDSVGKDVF

Compared with `O=C(O)CCCNC(=O)c1cc(O)c(C(=O)NC(c2ccccc2)c2ccccc2)cn1` [Example 12, 4-(5-(benzhydrylcarbamoyl)-4-hydroxypicolinamido)butanoic acid], `CCOC(=O)CCNC(=O)c1cc(O)c(C(=O)NC(c2ccccc2)c2ccccc2)cn1` [Example 2, ethyl 3-(5-(benzhydrylcarbamoyl)-4-hydroxypicolinamido)propanoate] is 91-fold higher in IC50: 1.02 nM for the first, 92.9 nM for the second.

`O=C(N[C@H]1C[C@@H]1C(=O)O)c1cc(O)c(C(=O)NC(c2ccccc2)c2ccccc2)cn1` [Example 15, (1S,2S)-2-(5-(benzhydrylcarbamoyl)-4-hydroxypicolinamido)cyclopropanecarboxylic acid] and `O=C(N[C@@H]1C[C@H]1C(=O)O)c1cc(O)c(C(=O)NC(c2ccccc2)c2ccccc2)cn1` [Example 16, (1R,2R)-2-(5-(benzhydrylcarbamoyl)-4-hydroxypicolinamido)cyclopropanecarboxylic acid] are within 1.5-fold of each other in IC50: 6.69 nM for the first, 6.55 nM for the second.

First: O=C(O)c1cnn(-c2cc(O)c(C(=O)NC(c3ccccc3)c3ccccc3)cn2)c1 [Example 1, 1-(5-(Benzhydrylcarbamoyl)-4-hydroxypyridin-2-yl)-1H-pyrazole-4-carboxylic acid]
Second: CC(C)(CNC(=O)c1cc(O)c(C(=O)NC(c2ccccc2)c2ccccc2)cn1)C(=O)O [Example 14, 3-(5-(benzhydrylcarbamoyl)-4-hydroxypicolinamido)-2,2-dimethylpropanoic acid]
The IC50 of the first is 4.1-fold lower: 0.875 nM for the first, 3.61 nM for the second.

First: O=C(NC12CC(C(=O)O)(C1)C2)c1cc(O)c(C(=O)NC(c2ccccc2)c2ccccc2)cn1 [Example 17, 3-(5-(benzhydrylcarbamoyl)-4-hydroxypicolinamido)bicyclo[1.1.1]pentane-1-carboxylic acid]
Second: O=C(NCC1(C(=O)O)CC1)c1cc(O)c(C(=O)NC(c2ccccc2)c2ccccc2)cn1 [Example 11, 1-((5-(benzhydrylcarbamoyl)-4-hydroxypicolinamido)methyl)cyclopropanecarboxylic acid]
The IC50 of the first is 4.5-fold higher: 23.4 nM for the first, 5.24 nM for the second. The second is the more potent here.

Compared with `CCOC(=O)C(C)(C)CNC(=O)c1cc(O)c(C(=O)NC(c2ccccc2)c2ccccc2)cn1` [Example 5, ethyl 3-(5-(benzhydrylcarbamoyl)-4-hydroxypicolinamido)-2,2-dimethylpropanoate], `COC(=O)C(C)CNC(=O)c1cc(O)c(C(=O)NC(c2ccccc2)c2ccccc2)cn1` (stereo not shown) [Example 3, methyl 3-(5-(benzhydrylcarbamoyl)-4-hydroxypicolinamido)-2-methylpropanoate] is 2-fold lower in IC50: 276 nM for the first, 136 nM for the second. The second is the more potent here.

Compared with `CCOC(=O)C1(CNC(=O)c2cc(O)c(C(=O)NC(c3ccc(Cl)cc3)c3ccc(Cl)cc3)cn2)CC1` [Example 5, ethyl 1-((5-((bis(4-chlorophenyl)methyl)carbamoyl)-4-hydroxypicolinamido)methyl) cyclopropanecarboxylate], `CCOC(=O)[C@H]1C[C@@H]1NC(=O)c1cc(O)c(C(=O)NC(c2ccccc2)c2ccccc2)cn1` [Example 6, (1S,2S)-ethyl 2-(5-(benzhydrylcarbamoyl)-4-hydroxypicolinamido)cyclopropanecarboxylate] is 2.1-fold lower in IC50: 184 nM for the first, 89.1 nM for the second. The second is the more potent here.

`O=C(NCC(O)C(=O)O)c1cc(O)c(C(=O)NC(c2ccccc2)c2ccccc2)cn1` (stereo not shown) [Example 13, 3-(5-(benzhydrylcarbamoyl)-4-hydroxypicolinamido)-2-hydroxypropanoic acid] and `CC(CNC(=O)c1cc(O)c(C(=O)NC(c2ccccc2)c2ccccc2)cn1)C(=O)O` (stereo not shown) [Example 10, 3-(5-(benzhydrylcarbamoyl)-4-hydroxypicolinamido)-2-methylpropanoic acid] are within 1.5-fold of each other in IC50: 1.28 nM for the first, 1.89 nM for the second.

Compared with `O=C(N[C@H]1C[C@H](C(=O)O)C1)c1cc(O)c(C(=O)NC(c2ccccc2)c2ccccc2)cn1` [Example 3], `CCOC(=O)[C@@H]1C[C@H]1NC(=O)c1cc(O)c(C(=O)NC(c2ccccc2)c2ccccc2)cn1` [Example 7, (1R,2R)-ethyl 2-(5-(benzhydrylcarbamoyl)-4-hydroxypicolinamido)cyclopropanecarboxylate] is 23-fold higher in IC50: 1.64 nM for the first, 37.3 nM for the second.

From US20170240511A1 (MERCK SHARP & DOHME CORP., priority 2014, published 2017)
